Legend:
LDLr−/− mice [1] = assay: Intervention study in LDLr−/− mice on 45 En % Lard diet: body weight and adipose depots; assay type: in vivo; details: for gonadal fat mass: drug mixed into diet from week 9 until week 16, FIG. 6
Procedure: Based on the findings of the above experiment, an intervention study was designed. The middle dose (45 En % lard diet) was defined to be the optimal diet to use for interventions with drugs since ALAT was not increased Thereby putative adverse liver effects of drugs can still be detected. Several anti-diabetic interventions (drugs and life-style) were tested according to the experimental set-up described above.
LDLr−/− mice (12 weeks old) were fed 45 En % Lard diet for 9 weeks to establish a prediabetic state (as described above and including visceral adiposity, hypertriglyceridemia, elevated glucose and insulin, chronic inflammation). After these 9 weeks, the interventions were started and continued until week 16. Drugs were mixed into lard diet and administered orally via the feed. One group of mice was sacrifice at the start of the intervention at week 9 for reference. Another control group was fed chow throughout the 16 weeks (serving as internal reference). The groups were as follows:
(§1) Body weight and food intake were measured regularly and blood samples were taken at t=0, t=6, t=9, t=12, t=14 and t=15 weeks. Spot urine was collected at t=0, t=8 and t=15 weeks. At the end of the study, the mice were sacrificed and the various organs were isolated and weighed and stored at −80 C and/or in formalin. Livers were processed for microarray analysis. More specifically, the same lobe of each liver was used for RNA extraction to prepare mRNA of microarray quality according to an established protocol (Kleemann et al., Genome Biology, 2007).

LDLr−/− mice [2] = assay: Intervention study in LDLr−/− mice on 45 En % Lard diet: microalbuminuria (albumine/creatinine ratio in spot urine); assay type: in vivo; details: compared to high fat treated control animals not treated with drugs, ratio as μg albumine per mg creatinine, drug mixed into 45 En % Lard diet from week 9 until week 16, FIG. 7
Procedure: Several anti-diabetic interventions (drugs and life-style) were tested according to the experimental set-up described above.
After these 9 weeks, the interventions were started and continued until week 16. Drugs were mixed into lard diet and administered orally via the feed. One group of mice was sacrifice at the start of the intervention at week 9 for reference. Another control group was fed chow throughout the 16 weeks (serving as internal reference). The groups were as follows:
as §1
Microalbuminuria is a hallmark of diabetic nephropathy and was determined by measuring the concentration of albumine and creatinine in spot urine collected at various time points during the experiment. Subsequently the albumine/creatinine ratio was calculated, viz. the amount of albumine expressed in μg per mg creatinine (FIG. 7).

| SMILES | gonadal fat mass (LDLr−/− mice [1]) | body weight (LDLr−/− mice [1]; drug mixed into diet, orally via feed, from week 9 until week 16, FIG. 5) | albumine/creatinine ratio (microalbuminuria) (LDLr−/− mice [2]) |
| --- | --- | --- | --- |
| O=S(=O)(c1ccccc1)N(CC(F)(F)F)c1ccc(C(O)(C(F)(F)F)C(F)(F)F)cc1 [LXR agonist] | lowered | reduced |  |
| O=C(O)c1ccccc1O [salicylate] | lowered |  | significantly improved |
| CC(C)c1c(C(=O)Nc2ccccc2)c(-c2ccccc2)c(-c2ccc(F)cc2)n1CC[C@@H](O)C[C@@H](O)CC(=O)O [atorvastatin] |  |  | significantly improved |
| CN(C)C(=N)N=C(N)N [metformin] |  |  | significantly improved |
| COc1ccc(Cl)cc1C(=O)NCCc1ccc(S(=O)(=O)NC(=O)NC2CCCCC2)cc1 [glibenclamide, Glibenclamide] | lowered |  | significantly improved |

Source: US9726664B2, “Animal model for diabetic complications” (NEDERLANDSE ORGANISATIE VOOR …, priority 2010, dated 2017)
